The target in data set [1] is T1, ATP-dependent translocase ABCB1 (Homo sapiens, UniProt P08183). Put plainly: Inhibition of P-gp-mediated doxorubicin efflux in human Lucena 1 cells assessed as ratio of doxorubicin fluorescence intensity in presence of compound to doxorubicin fluorescence intensity in absence of compound at 25 uM preincubated for 1 hr followed by doxorubicin addition measured after 1 hr by flow cytometry. It counts as cell-based.

The target in data set [2] is T1, ATP-dependent translocase ABCB1. Nature of the data set: Inhibition of P-gp-mediated doxorubicin efflux in human Lucena 1 cells assessed as ratio of doxorubicin fluorescence intensity in presence of compound to doxorubicin fluorescence intensity in absence of compound at 6.25 uM preincubated for 1 hr followed by doxorubicin addition measured after 1 hr by flow cytometry. Format: cell-based. (In general: In flow cytometry, cells or beads pass a laser one at a time.)

Data set [3] has the same target. Nature of the data set: Inhibition of P-gp-mediated doxorubicin efflux in human Lucena 1 cells preincubated for 1 hr followed by doxorubicin addition measured after 1 hr by flow cytometry. It counts as cell-based.
Data set [4] deals with K562. Nature of the data set: Inhibition of doxorubicin efflux in human K562 cells at 25 uM preincubated for 1 hr followed by doxorubicin addition measured after 1 hr by flow cytometry. It counts as functional, cell-based.
Data set [5] addresses T1, ATP-dependent translocase ABCB1. Put plainly: Inhibition of P-gp-mediated doxorubicin efflux in human Lucena 1 cells assessed as ratio of doxorubicin fluorescence intensity in presence of compound to doxorubicin fluorescence intensity in absence of compound at 1.56 uM preincubated for 1 hr followed by doxorubicin addition measured after 1 hr by flow cytometry. Format: cell-based.

For data set [6] the target is unchanged. Nature of the data set: Inhibition of P-gp-mediated doxorubicin efflux in human Lucena 1 cells assessed as ratio of doxorubicin fluorescence intensity in presence of compound to doxorubicin fluorescence intensity in absence of compound at 0.78 uM preincubated for 1 hr followed by doxorubicin addition measured after 1 hr by flow cytometry. It counts as cell-based.

Data set [7] has the same target. Nature of the data set: Inhibition of P-gp-mediated Rho-123 efflux in human Lucena 1 cells at 50 uM preincubated for 1 hr followed by Rho-123 addition measured after 1 hr by flow cytometry. Format: cell-based.
The test system of data set [8] is K562. Format: functional, cell-based. To be noted: Homo sapiens, 3.12 uM.
Data set [9] has as its system PBMC. Nature of the data set: Cytotoxicity against human PBMC at 25 uM after 48 hrs by MTT assay relative to control. Format: cell-based. For orientation: Formazan colour is commonly taken as a measure of viable cells.
The subject of data set [10] is PBMC. Put plainly: Cytotoxicity against human PBMC at 6.25 uM after 48 hrs by MTT assay. It counts as cell-based.
For a further data set, the target named is P-gp (ABCB1) (Homo sapiens, UniProt P08183). Nature of the data set: Stimulation of P-gp (unknown origin) ATPase activity at 10 uM relative to control. To be noted: read-out: Activity.
P-gp (ABCB1), sequence (P08183 whole entry): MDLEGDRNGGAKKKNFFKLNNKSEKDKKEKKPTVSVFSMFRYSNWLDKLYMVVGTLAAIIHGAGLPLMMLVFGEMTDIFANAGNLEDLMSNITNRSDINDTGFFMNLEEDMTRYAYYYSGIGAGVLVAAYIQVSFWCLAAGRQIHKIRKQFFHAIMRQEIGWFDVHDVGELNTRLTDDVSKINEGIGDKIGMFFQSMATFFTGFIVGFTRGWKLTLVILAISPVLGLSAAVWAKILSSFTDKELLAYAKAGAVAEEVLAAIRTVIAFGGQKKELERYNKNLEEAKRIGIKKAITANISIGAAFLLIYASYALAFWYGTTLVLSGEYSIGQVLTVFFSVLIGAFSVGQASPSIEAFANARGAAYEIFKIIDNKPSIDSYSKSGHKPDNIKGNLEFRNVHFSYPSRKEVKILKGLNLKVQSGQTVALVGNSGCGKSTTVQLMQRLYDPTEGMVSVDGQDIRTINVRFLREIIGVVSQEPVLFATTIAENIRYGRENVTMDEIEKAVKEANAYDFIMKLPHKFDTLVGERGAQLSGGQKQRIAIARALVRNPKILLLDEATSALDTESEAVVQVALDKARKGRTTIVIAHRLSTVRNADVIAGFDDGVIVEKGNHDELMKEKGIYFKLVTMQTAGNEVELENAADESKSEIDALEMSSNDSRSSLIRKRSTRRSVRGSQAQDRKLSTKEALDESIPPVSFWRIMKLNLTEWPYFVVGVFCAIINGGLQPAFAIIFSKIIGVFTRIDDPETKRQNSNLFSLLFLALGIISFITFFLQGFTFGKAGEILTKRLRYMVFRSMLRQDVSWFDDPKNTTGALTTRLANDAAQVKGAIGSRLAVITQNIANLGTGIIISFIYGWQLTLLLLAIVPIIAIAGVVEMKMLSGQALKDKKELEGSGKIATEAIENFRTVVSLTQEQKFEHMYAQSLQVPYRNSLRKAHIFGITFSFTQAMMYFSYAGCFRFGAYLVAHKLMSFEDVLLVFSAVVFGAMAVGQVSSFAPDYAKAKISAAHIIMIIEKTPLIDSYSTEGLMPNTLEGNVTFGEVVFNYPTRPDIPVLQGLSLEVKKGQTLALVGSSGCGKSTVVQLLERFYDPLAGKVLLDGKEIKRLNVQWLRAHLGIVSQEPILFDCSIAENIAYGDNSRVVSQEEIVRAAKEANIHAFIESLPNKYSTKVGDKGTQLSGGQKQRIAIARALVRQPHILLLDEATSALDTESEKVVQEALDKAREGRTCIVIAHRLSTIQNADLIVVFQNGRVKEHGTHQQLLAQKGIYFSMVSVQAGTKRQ
In data set [11] the target is T1, ATP-dependent translocase ABCB1. Put plainly: Inhibition of P-gp-mediated Rho-123 efflux in human Lucena 1 cells at […] preincubated for 1 hr followed by Rho-123 addition measured after 1 hr by flow cytometry. Format: cell-based.
Data set [12] has the same target. Put plainly: Inhibition of P-gp-mediated doxorubicin efflux in human Lucena 1 cells assessed as ratio of doxorubicin fluorescence intensity in presence of compound to doxorubicin fluorescence intensity in absence of compound at 0.39 uM preincubated for 1 hr followed by doxorubicin addition measured after 1 hr by flow cytometry. It counts as cell-based.
Data set [13] has as its system K562. Put plainly: Potentiation of doxorubicin-induced cytotoxicity in human K562 cells assessed as decrease in doxorubicin IC50 at 1.56 uM after 48 hrs by MTT assay. Format: functional, cell-based.

Active and inactive are the calls of the source. The rule behind the calls is not given here.

T1 sequence (P08183 whole entry): as above

For the compound `COc1cc([C@@H]2CC(O)=Nc3c2cnn3Cc2cccs2)ccc1O`, in [1], the Ratio stood at 0.96.

As for `CC/C(=C(/CC)c1ccc(OCCO)cc1)c1ccc(OCCO)cc1`, the Ratio was determined as 1.16 in data set [1] and 1.08 in data set [2]. The “inhibition (INH)” value in [3] is on record as “Dose-dependent effect”. Further, the inhibition result in the data set on K562 [4] was “inactive”.

As for `COc1ccc2[nH]c(-c3ccc(OC)c(OC)c3)c(C)c2c1`, the Ratio in [1] is on record as 0.9.

In the case of `COc1ccc(-n2nc(C)c3c2NC(=O)C[C@@H]3c2ccc(O)c(OC)c2)cc1`, the Ratio in data set [1] is recorded as 1.11.

Regarding `CC/C(=C(/CC)c1ccc(OCCCO)cc1)c1ccc(OCCCO)cc1`, the Ratio in data set [1] came to 1.23; in [2], 1.09; in data set [5], 1.05; in data set [6] it was 0.98. Further, the results for the “inhibition (INH)” value in [3] and in data set [7] were “Dose-dependent effect” and “Active”, respectively. Moreover, the inhibition result with K562 [4] was “inactive”. Moreover, the Activity result with K562 [8] is “inactive”. The Activity in the data set on PBMC [9] is recorded as 34.67%; in the data set with PBMC [10] it was “Non-Toxic”.

For `CC/C(=C(/CC)c1ccc(OC)cc1)c1ccc(OC)cc1`, the Ratio is 1.19 in data set [1] and 1.09 in [2]. Moreover, in [3], the “inhibition (INH)” value was “Dose-dependent effect”. In the data set with K562 [4], the inhibition entry is “inactive”.

As to `CC/C(=C(/CC)c1ccc(OCCCCOC(C)=O)cc1)c1ccc(OCCCCOC(C)=O)cc1`, the Ratio is reported as 1.18 in data set [1], 1.09 in data set [2] and 1.01 in data set [5]. Besides, the “inhibition (INH)” value in data set [3] is “Dose-dependent effect”. Moreover, in the data set with K562 [4], the inhibition entry was “inactive”.

Regarding `CC/C(=C(/CC)c1ccc(O)cc1)c1ccc(O)cc1` [DIETHYLSTILBESTROL], the Ratio in data set [1] is recorded as 1.06; in data set [2], 1.04. Besides, the activity at 10 µM on P-gp (ABCB1) was 45%. Further, the inhibition entry in the data set on K562 [4] was “inactive”.

Regarding `CC/C(=C(/CC)c1ccc(OCCCS(=O)(=O)[O-])cc1)c1ccc(OCCCS(=O)(=O)[O-])cc1.[Na+].[Na+]`, the Ratio in data set [1] amounted to 1.03.

For `CC/C(=C(/CC)c1ccc(OCCCOC(C)=O)cc1)c1ccc(OCCCOC(C)=O)cc1`, the values for the Ratio in data set [1], in data set [2] and in data set [5] were 1.21, 1.06 and 1.02, respectively. In data set [3], the “inhibition (INH)” value was “Dose-dependent effect”. For the same compound, the inhibition entry with K562 [4] is “inactive”.

Consider `CC/C(=C(/CC)c1ccc(OCCCCS(=O)(=O)[O-])cc1)c1ccc(OCCCCS(=O)(=O)[O-])cc1.[Na+].[Na+]`, for which the Ratio in [1] is 0.95.

`Cc1c(-c2ccc(O)cc2)[nH]c2ccc(O)cc12`: the Ratio in [1] is 0.8.

In the case of `CC/C(=C(/CC)c1ccc(OCCOS(=O)(=O)[O-])cc1)c1ccc(OCCOS(=O)(=O)[O-])cc1.[Na+].[Na+]`, the Ratio in [1] is 1.04.

For `CC/C(=C(/CC)c1ccc(OCCOC(C)=O)cc1)c1ccc(OCCOC(C)=O)cc1`, the Ratio is on record as 1.21 in data set [1], 1.12 in [2] and 1.03 in data set [5]. Further, the “inhibition (INH)” value in data set [3] was “Dose-dependent effect”. The inhibition entry in the data set with K562 [4] was “inactive”.

As to `Cc1c(-c2ccc(O)c(O)c2)[nH]c2ccc(O)cc12`, in [1], the Ratio was 0.72.

For the compound `CC/C(=C(\c1ccccc1)c1ccc(OCCN(C)C)cc1)c1ccccc1` [TAMOXIFEN], the Ratio in [1] is on record as 1.13. For the same compound, the INH result in [11] is listed as “Active”.

Take `Cc1c(-c2ccc(O)c(O)c2)[nH]c2ccc(OCCO)cc12`: the Ratio in data set [1] came out at 1.01.

With `CC/C(=C(/CC)c1ccc(OCCCCO)cc1)c1ccc(OCCCCO)cc1`, the Ratio in data set [1] turned out to be 1.32; in [2] it was 1.08; in [5], 1.1; in [6], 0.99; in data set [12], 1. For the same compound, in data set [3], the “inhibition (INH)” value is reported as “Dose-dependent effect”. Also, the inhibition result with K562 [4] was “inactive”. Besides, the INH entry in data set [11] is “Active”. Besides, the Activity entry in the data set on K562 [13] was “inactive”. The Activity in the data set on PBMC [9] is 41%; in the data set with PBMC [10], “Non-Toxic”.

For the compound `CC/C(=C(/CC)c1ccc(S(=O)(=O)[O-])cc1)c1ccc(S(=O)(=O)[O-])cc1.[Na+].[Na+]`, in data set [1], the Ratio turned out to be 0.99.

`Cc1c(-c2ccc(O)c(O)c2)n(C)c2ccc(O)cc12`: the Ratio in data set [1] amounted to 0.75.

The record behind these values is ChEMBL document CHEMBL4325923, “Analogues of the Lignan Pinoresinol as Novel Lead Compounds for P-glycoprotein (P-gp) Inhibitors” (ACS Med Chem Lett, 2018).
